Here are results for 24 molecules from US10981894B2, “Melanocortin subtype-2 receptor (MC2R) antagonists and uses thereof” (Crinetics Pharmaceuticals, Inc., priority 2018, dated 2021).

Bounds are passed on as bounds.

In the experiment the target is hMC2 receptor (Homo sapiens, UniProt Q01718). Put plainly: hMC2 membrane binding assay ([125I]ACTH (1-39) Tyr23, SPA). Further details: scale not given here. Particulars: crude hMC2R membranes from CRE-bla-CHO-K1 cells expressing hMC2 receptor and hMRAP; [125I]ACTH (1-39) Tyr23 0.2 nM; 1.5 hours at room temperature; read-out: MC2R binding potency. The procedure, abridged: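 Ki comes from non-linear regression of SPA scintillation counts. Displacement of 0.2 nM [125I]ACTH(1-39) Tyr23 by compound dose series (usually 0–10,000 nM final) ran 1.5 h at room temperature. Membranes came from CHO-K1 CRE-bla cells stably expressing hMC2R plus hMRAP, bead-coupled in pH 7.4 buffer with 0.2% BSA.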
Sequence of hMC2 receptor (Q01718 whole entry): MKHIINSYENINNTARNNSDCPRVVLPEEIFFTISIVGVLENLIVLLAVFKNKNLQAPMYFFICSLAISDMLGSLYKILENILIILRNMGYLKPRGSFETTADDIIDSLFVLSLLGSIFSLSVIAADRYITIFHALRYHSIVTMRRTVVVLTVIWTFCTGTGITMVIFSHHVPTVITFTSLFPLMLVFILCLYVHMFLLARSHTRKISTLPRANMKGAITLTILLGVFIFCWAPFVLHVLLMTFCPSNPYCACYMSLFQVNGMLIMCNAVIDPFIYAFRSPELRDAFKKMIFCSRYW
Sequence of hMC2 receptor (Q8TCY5 whole entry partner): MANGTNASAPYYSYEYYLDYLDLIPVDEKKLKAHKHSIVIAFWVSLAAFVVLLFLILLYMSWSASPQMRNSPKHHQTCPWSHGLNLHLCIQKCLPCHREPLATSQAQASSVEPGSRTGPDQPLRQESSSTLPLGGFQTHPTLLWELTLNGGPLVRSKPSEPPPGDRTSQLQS
Take `CCOc1ccccc1-c1ccc(N2CCN(C(=O)c3ccc(Cl)cc3C(F)(F)F)C[C@H]2CC)c(C(=O)N[C@@H]2CCNC2)n1` [Compound 1-209, 3-[(2R)-4-[4-chloro-2-(trifluoromethyl)benzoyl]-2-ethylpiperazin-1-yl]-6-(2-ethoxyphenyl)-N-[(3R)-pyrrolidin-3-yl]pyridine-2-carboxamide]: the Ki was less than 0.01 µM. The result for `CCOc1ccccc1-c1ccc(N2CCN(C(=O)c3ccc(Cl)cc3C(F)(F)F)C[C@H]2CC)c(C(=O)NC2CNC2)n1` [Compound 1-220, N-(azetidin-3-yl)-3-[(2R)-4-[4-chloro-2-(trifluoromethyl)benzoyl]-2-ethylpiperazin-1-yl]-6-(2-ethoxyphenyl)pyridine-2-carboxamide] reads less than 0.01 µM.

In the case of `CCOc1ncccc1-c1ccc(N2CCN(C(=O)N3CCc4cccc(Cl)c43)C[C@H]2CC)c(C(=O)N[C@@H]2CCNC2)n1` [Compound 1-346, 5-[(2R)-4-(7-chloro-2,3-dihydro-1H-indole-1-carbonyl)-2-ethylpiperazin-1-yl]-2′-ethoxy-N-[(3R)-pyrrolidin-3-yl]-[2,3′-bipyridine]-6-carboxamide], the Ki was less than 0.01 µM. With `CC[C@@H]1CN(C(=O)c2ccc(C(F)(F)F)cc2Cl)CCN1c1ccc(-c2ccccc2C#N)cc1C(=O)NCCN` [Compound 1-7, N-(2-aminoethyl)-4-[(2R)-4-[2-chloro-4-(trifluoromethyl)benzoyl]-2-ethylpiperazin-1-yl]-2′-cyano-[1,1′-biphenyl]-3-carboxamide], the Ki is 0.01 to 0.1 µM. In the case of `CCOc1ncccc1-c1ccc(N2CCN(C(=O)c3ccc(OC)nc3C(F)(F)F)C[C@H]2CC)c(C(=O)N[C@@H]2CCN(C)C2)c1F` [Compound 1-270, 3-(2-ethoxypyridin-3-yl)-6-[(2R)-2-ethyl-4-[6-methoxy-2-(trifluoromethyl)pyridine-3-carbonyl]piperazin-1-yl]-2-fluoro-N-[(3R)-1-methylpyrrolidin-3-yl]benzamide], the Ki is less than 0.01 µM. The result for `CCOc1cnccc1-c1ccc(N2CCN(C(=O)c3ccc(C(F)(F)F)cc3Cl)C[C@H]2CC)c(C(=O)NCCN)c1` [Compound 1-33, N-(2-aminoethyl)-2-[(2R)-4-[2-chloro-4-(trifluoromethyl)benzoyl]-2-ethylpiperazin-1-yl]-5-(3-ethoxypyridin-4-yl)benzamide] reads 0.01 to 0.1 µM; that for `CCOc1ncccc1-c1ccc(N2CCN(C(=O)c3ccc(C)cc3Cl)C[C@H]2CC)c(C(=O)NCCNC)c1F` [Compound 1-113, 6-[(2R)-4-(2-chloro-4-methylbenzoyl)-2-ethylpiperazin-1-yl]-3-(2-ethoxypyridin-3-yl)-2-fluoro-N-[2-(methylamino)ethyl]benzamide], less than 0.01 µM. The result for `CCOc1ncccc1-c1ccc(N2CCN(C(=O)N3CCC[C@H]3C(F)(F)F)C[C@H]2CC)c(C(=O)NC[C@@H]2CCN2C)n1` [Compound 1-391, 2′-ethoxy-5-[(2R)-2-ethyl-4-[(2S)-2-(trifluoromethyl)pyrrolidine-1-carbonyl]piperazin-1-yl]-N-{[(2S)-1-methylazetidin-2-yl]methyl}-[2,3′-bipyridine]-6-carboxamide] reads less than 0.01 µM. The result for `CCOc1ncccc1-c1ccc(N2CCN(C(=O)c3ccc(C)cc3N3CC[C@H](NC)C3)C[C@H]2CC)c(C(=O)N[C@@H]2CCNC2)c1` [Compound 1-94, 5-(2-ethoxypyridin-3-yl)-2-[(2R)-2-ethyl-4-{4-methyl-2-[(3S)-3-(methylamino)pyrrolidin-1-yl]benzoyl}piperazin-1-yl]-N-[(3R)-pyrrolidin-3-yl]benzamide] reads less than 0.01 µM; that for `CCOc1ncccc1-c1ccc(N2CCN(C(=O)c3ccc(Cl)cc3C(F)(F)F)C[C@H]2CC)c(C(=O)NCCc2ncc[nH]2)c1` [Compound 1-93, 2-[(2R)-4-[4-chloro-2-(trifluoromethyl)benzoyl]-2-ethylpiperazin-1-yl]-5-(2-ethoxypyridin-3-yl)-N-[2-(1H-imidazol-2-yl)ethyl]benzamide], less than 0.01 µM; that for `CCOc1ncccc1-c1ccc(N2CCN(C(=O)OC(C(C)(C)C)C(F)(F)F)C[C@H]2CC)c(C(=O)N[C@@H]2CCN(C)C2)n1` (single isomer, unassigned) [Compound 1-392, (2S*)-1,1,1-trifluoro-3,3-dimethylbutan-2-yl (3R)-4-(2′-ethoxy-6-{[(3R)-1-methylpyrrolidin-3-yl]carbamoyl}-[2,3′-bipyridin]-5-yl)-3-ethylpiperazine-1-carboxylate], less than 0.01 µM.

With `CCOc1ncccc1-c1ccc(N2CCN(C(=O)C3(c4ccccc4)CCC3)C[C@H]2CC)c(C(=O)N[C@@H]2CCN(C)C2)n1` [Compound 1-358, 2′-ethoxy-5-[(2R)-2-ethyl-4-(1-phenylcyclobutanecarbonyl)piperazin-1-yl]-N-[(3R)-1-methylpyrrolidin-3-yl]-[2,3′-bipyridine]-6-carboxamide], the Ki was less than 0.01 µM. For the molecule `CCOc1ncccc1-c1ccc(N2CCN(C(=O)c3ccc(C4CC4)cc3C)C[C@H]2CC)c(C(=O)NCCN)c1` [Compound 1-88, N-(2-aminoethyl)-2-[(2R)-4-(4-cyclopropyl-2-methylbenzoyl)-2-ethylpiperazin-1-yl]-5-(2-ethoxypyridin-3-yl)benzamide], the Ki was less than 0.01 µM. The result for `CCOc1ncccc1-c1ccc(N2CCN(C(=O)c3ccc(Cl)cc3C(F)(F)F)C[C@H]2CC)c(C(=O)NC[C@H]2CCN2C)n1` [Compound 1-231, 5-[(2R)-4-[4-chloro-2-(trifluoromethyl)benzoyl]-2-ethylpiperazin-1-yl]-2′-ethoxy-N-{[(2R)-1-methylazetidin-2-yl]methyl}-[2,3′-bipyridine]-6-carboxamide] reads less than 0.01 µM. With `CCOc1ncccc1-c1ccc(N2CCN(C(=O)O[C@@H](C(C)(C)C)C(F)(F)F)C[C@H]2CC)c(C(=O)N[C@@H]2CN3CCC2CC3)n1` [Compound 1-403, (2S)-1,1,1-trifluoro-3,3-dimethylbutan-2-yl (3R)-4-(6-{[(3S)-1-azabicyclo[2.2.2]octan-3-yl]carbamoyl}-2′-ethoxy-[2,3′-bipyridin]-5-yl)-3-ethylpiperazine-1-carboxylate; or (2R)-1,1,1-trifluoro-3,3-dimethylbutan-2-yl (3R)-4-(6-{[(3S)-1-azabicyclo[2.2.2]octan-3-yl]carbamoyl}-2′-ethoxy-[2,3′-bipyridin]-5-yl)-3-ethylpiperazine-1-carboxylate] the figure was less than 0.01 µM. With `CCOc1ncccc1-c1ccc(N2CCN(C(=O)n3ccc4cc(F)cc(Cl)c43)C[C@H]2CC)c(C(=O)N[C@@H]2CCN(C)C2)n1` [Compound 1-425, 5-[(2R)-4-(7-chloro-5-fluoro-1H-indole-1-carbonyl)-2-ethylpiperazin-1-yl]-2′-ethoxy-N-[(3R)-1-methylpyrrolidin-3-yl]-[2,3′-bipyridine]-6-carboxamide] the figure was less than 0.01 µM; with `CCOc1ncccc1-c1ccc(N2CCN(C(=O)c3ccc(Cl)cc3C(F)(F)F)C[C@H]2CC)c(C(=O)N[C@H]2CCNC2)c1` [Compound 1-92, 2-[(2R)-4-[4-chloro-2-(trifluoromethyl)benzoyl]-2-ethylpiperazin-1-yl]-5-(2-ethoxypyridin-3-yl)-N-[(3S)-pyrrolidin-3-yl]benzamide], less than 0.01 µM. In the case of `CCOc1ncccc1-c1ccc(N2CCN(C(=O)c3ccc(Cl)cc3C(F)(F)F)C[C@H]2CC)c(C(=O)NC[C@H]2CCCN2)c1` [Compound 1-108, 2-[(2R)-4-[4-chloro-2-(trifluoromethyl)benzoyl]-2-ethylpiperazin-1-yl]-5-(2-ethoxypyridin-3-yl)-N-{[(2R)-pyrrolidin-2-yl]methyl}benzamide], the Ki is less than 0.01 µM. With `CCOc1ncccc1-c1ccc(N2CCN(C(=O)OC(C(C)(C)C)C(F)(F)F)C[C@H]2CC)c(C(=O)N[C@@H]2CCNC2)n1` (stereo partly drawn) [Compound 1-312, 1,1,1-trifluoro-3,3-dimethylbutan-2-yl (3R)-4-(2′-ethoxy-6-{[(3R)-pyrrolidin-3-yl]carbamoyl}-[2,3′-bipyridin]-5-yl)-3-ethylpiperazine-1-carboxylate] the figure was less than 0.01 µM; with `CCOc1ccccc1-c1ccc(N2CCN(C(=O)[C@H]3CC[C@@H](C(F)(F)F)CC3)C[C@H]2CC)c(C(=O)N[C@@H]2CCNC2)n1` [Compound 1-335, 6-(2-ethoxyphenyl)-3-[(2R)-2-ethyl-4-[cis-4-(trifluoromethyl)cyclohexanecarbonyl]piperazin-1-yl]-N-[(3R)-pyrrolidin-3-yl]pyridine-2-carboxamide], less than 0.01 µM. With `CC[C@@H]1CN(C(=O)c2ccc(C(F)(F)F)cc2Cl)CCN1c1ccc(-c2ccccc2C)cc1C(=O)NCCN` [Compound 1-8, N-(2-aminoethyl)-4-[(2R)-4-[2-chloro-4-(trifluoromethyl)benzoyl]-2-ethylpiperazin-1-yl]-2′-methyl-[1,1′-biphenyl]-3-carboxamide] the figure was 0.01 to 0.1 µM. The result for `CCOc1ccccc1-c1ccc(N2CCN(C(=O)N3CCCC3C(C)(C)C)C[C@H]2CC)c(C(=O)N[C@@H]2CCNC2)n1` (stereo partly drawn) [Compound 1-305, 3-[(2R)-4-(2-tert-butylpyrrolidine-1-carbonyl)-2-ethylpiperazin-1-yl]-6-(2-ethoxyphenyl)-N-[(3R)-pyrrolidin-3-yl]pyridine-2-carboxamide] reads less than 0.01 µM; that for `CCOc1ccccc1-c1ccc(N2CCN(C(=O)c3ccc(F)cc3-c3ccc(CN)cc3)C[C@H]2CC)c(C(=O)NCCN)c1` [Compound 1-17, N-(2-aminoethyl)-4-[(2R)-4-[4′-(aminomethyl)-5-fluoro-[1,1′-biphenyl]-2-carbonyl]-2-ethylpiperazin-1-yl]-2′-ethoxy-[1,1′-biphenyl]-3-carboxamide], less than 0.01 µM; that for `CCOc1ncccc1-c1ccc(N2CCN(C(=O)c3ccc(Cl)cc3C(F)(F)F)C[C@H]2CC)c(C(=O)NCCC2=NCCN2)c1F` [Compound 1-219, 6-[(2R)-4-[4-chloro-2-(trifluoromethyl)benzoyl]-2-ethylpiperazin-1-yl]-N-[2-(4,5-dihydro-1H-imidazol-2-yl)ethyl]-3-(2-ethoxypyridin-3-yl)-2-fluorobenzamide], less than 0.01 µM.
